Measurements from the NIST ThermoML archive (doi:10.1021/je060124c).

Experiment: mn = molality of the nth substance listed, in mol/kg
Settings: Liquid, Capillary tube (Ostwald / Ubbelohde) method

[Cl-].[Li+] [lithium chloride] + O
viscosity [mPa·s]
Settings	100 kPa	10000 kPa	20000 kPa	40000 kPa
298.15 K, m1 = 0.0473	0.8971	0.8975	0.898	0.899
298.15 K, m1 = 0.1185	0.907	0.9075	0.908	0.909
298.15 K, m1 = 0.4814	0.9559	0.9562	0.957	0.958
298.15 K, m1 = 1.242	1.062	1.062	1.062	1.062
298.15 K, m1 = 2.621	1.289	1.29	1.291	1.292
298.15 K, m1 = 5.897	1.925	1.926	1.927	1.928
298.15 K, m1 = 7.863	2.535	2.536	2.537	2.538
298.15 K, m1 = 10.11	3.426	3.427	3.428	3.429
298.15 K, m1 = 12.7	5.414	5.416	5.418	5.42
298.15 K, m1 = 16.39	9.44	9.443	9.449	9.451
323.15 K, m1 = 0.0473	0.5513	0.5535	0.5551	0.5594
323.15 K, m1 = 0.1185	0.5573	0.5599	0.5618	0.5665
323.15 K, m1 = 0.4814	0.5884	0.5905	0.5927	0.5974
323.15 K, m1 = 1.242	0.6546	0.657	0.66	0.66
323.15 K, m1 = 2.621	0.7967	0.8	0.8028	0.8094
323.15 K, m1 = 5.897	1.206	1.21	1.215	1.224
323.15 K, m1 = 7.863	1.576	1.582	1.588	1.601
323.15 K, m1 = 10.11	2.116	2.123	2.131	2.147
323.15 K, m1 = 12.7	3.121	3.131	3.143	3.167
323.15 K, m1 = 16.39	5.173	5.19	5.209	5.249
348.15 K, m1 = 0.0473	0.381	0.3839	0.387	0.392
348.15 K, m1 = 0.1185	0.3851	0.388	0.391	0.3968
348.15 K, m1 = 0.4814	0.4072	0.4099	0.4128	0.4189
348.15 K, m1 = 1.242	0.4536	0.4575	0.462	0.462
348.15 K, m1 = 2.621	0.5541	0.5583	0.5621	0.5704
348.15 K, m1 = 5.897	0.8423	0.8484	0.8546	0.8667
348.15 K, m1 = 7.863	1.102	1.109	1.117	1.133
348.15 K, m1 = 10.11	1.466	1.476	1.487	1.507
348.15 K, m1 = 12.7	2.075	2.09	2.104	2.134
348.15 K, m1 = 16.39	3.293	3.316	3.339	3.386
370.2 K, m1 = 2.621	0.428	0.4328	0.4367	0.4449
370.4 K, m1 = 7.863	0.8587	0.867	0.8747	0.8907
370.45 K, m1 = 10.11	1.127	1.138	1.148	1.169
370.55 K, m1 = 12.7	1.53	1.544	1.559	1.587
370.7 K, m1 = 5.897	0.6536	0.6594	0.666	0.6781
371.25 K, m1 = 1.242	0.3462	0.3496	0.353	0.353
371.43 K, m1 = 0.4814	0.3099	0.313	0.3159	0.3217
372.06 K, m1 = 0.1185	0.2906	0.2912	0.2961	0.3015
372.33 K, m1 = 0.0473	0.2867	0.2894	0.2921	0.2975
372.4 K, m1 = 16.39	2.308	2.329	2.351	2.394
397.2 K, m1 = 5.897	–	0.5175	0.5233	0.5352
397.25 K, m1 = 12.7	–	1.162	1.175	1.202
397.6 K, m1 = 10.11	–	0.8792	0.8897	0.9092
398.95 K, m1 = 0.0473	–	0.2258	0.228	0.2335
399.2 K, m1 = 16.39	–	1.71	1.73	1.769
399.31 K, m1 = 7.863	–	0.6675	0.6758	0.6916
399.72 K, m1 = 2.621	–	0.3286	0.3327	0.3409
399.74 K, m1 = 0.1185	–	0.2261	0.2292	0.2339
399.75 K, m1 = 0.4814	–	0.24	0.243	0.2483
400.25 K, m1 = 1.242	–	0.2663	0.2696	0.2696
420.32 K, m1 = 0.4814	–	0.2047	0.2074	0.2127
421.03 K, m1 = 0.1185	–	0.1915	0.1941	0.199
421.96 K, m1 = 5.897	–	0.4291	0.435	0.4463
422.4 K, m1 = 1.242	–	0.2248	0.2281	0.2281
422.51 K, m1 = 10.11	–	0.7257	0.7354	0.7544
423.8 K, m1 = 12.7	–	0.9216	0.9345	0.9595
424.5 K, m1 = 16.39	–	1.333	1.351	1.386
424.51 K, m1 = 7.863	–	0.5562	0.564	0.5785
424.52 K, m1 = 0.0473	–	0.1848	0.1879	0.1928
425.84 K, m1 = 2.621	–	0.2701	0.2739	0.2812
446.9 K, m1 = 12.7	–	0.7773	0.7897	0.8123
447.18 K, m1 = 5.897	–	0.3666	0.3725	0.384
448.7 K, m1 = 10.11	–	0.6126	0.622	0.6415
448.75 K, m1 = 0.1185	–	0.1599	0.1628	0.1675
449.16 K, m1 = 0.0473	–	0.1575	0.16	0.1655
449.75 K, m1 = 16.39	–	1.091	1.108	1.141
449.82 K, m1 = 7.863	–	0.4786	0.4862	0.5006
450.7 K, m1 = 1.242	–	0.1876	0.1908	0.1908
450.74 K, m1 = 0.4814	–	0.1681	0.1707	0.1758
452.54 K, m1 = 2.621	–	0.2292	0.2329	0.2399
470.42 K, m1 = 1.242	–	0.1686	0.1717	0.1717
471.5 K, m1 = 5.897	–	0.322	0.3277	0.3385
471.52 K, m1 = 16.39	–	0.9346	0.951	0.982
472.03 K, m1 = 0.1185	–	0.1403	0.143	0.1477
472.3 K, m1 = 7.863	–	0.4267	0.4344	0.4487
472.52 K, m1 = 12.7	–	0.6626	0.6742	0.6964
473.7 K, m1 = 0.4814	–	0.1482	0.1509	0.1559
473.8 K, m1 = 10.11	–	0.5335	0.543	0.562
474.25 K, m1 = 0.0473	–	0.137	0.1394	0.1441
476.22 K, m1 = 2.621	–	0.2026	0.2064	0.2135
494.2 K, m1 = 1.242	–	0.1501	0.1532	0.1532
497.12 K, m1 = 2.621	–	0.1843	0.188	0.1951
497.2 K, m1 = 16.39	–	0.807	0.8237	0.8543
497.3 K, m1 = 0.4814	–	0.1323	0.135	0.1401
497.3 K, m1 = 7.863	–	0.3824	0.3901	0.4047
497.83 K, m1 = 0.0473	–	0.122	0.1245	0.1291
498.45 K, m1 = 0.1185	–	0.1233	0.1256	0.1303
499.3 K, m1 = 5.897	–	0.282	0.288	0.2988
499.52 K, m1 = 10.11	–	0.4719	0.4813	0.5
499.82 K, m1 = 12.7	–	0.5736	0.5853	0.6075
520.61 K, m1 = 1.242	–	0.1336	0.137	0.137
520.7 K, m1 = 7.863	–	0.3496	0.358	0.3733
521.37 K, m1 = 0.1185	–	0.111	0.1137	0.1187
521.42 K, m1 = 0.4814	–	0.119	0.1219	0.1271
522.35 K, m1 = 0.0473	–	0.1093	0.1125	0.1168
522.42 K, m1 = 2.621	–	0.1665	0.1706	0.1781
522.94 K, m1 = 10.11	–	0.4262	0.4365	0.4263
523.03 K, m1 = 12.7	–	0.5136	0.5262	0.5488
523.82 K, m1 = 16.39	–	0.7062	0.722	0.754
524.86 K, m1 = 5.897	–	0.2531	0.26	0.2718
545.92 K, m1 = 1.242	–	0.1203	0.124	0.124
547.5 K, m1 = 0.1185	–	0.0993	0.1018	0.1076
547.82 K, m1 = 16.39	–	0.6309	0.648	0.682
548.75 K, m1 = 0.4814	–	0.106	0.1091	0.1148
548.9 K, m1 = 12.7	–	0.4554	0.4693	0.494
549.25 K, m1 = 0.0473	–	0.0974	0.1009	0.106
549.32 K, m1 = 5.897	–	0.2338	0.2411	0.2537
550.4 K, m1 = 2.621	–	0.1487	0.1533	0.1615
573.1 K, m1 = 0.1185	–	0.0885	0.0922	0.0982
573.7 K, m1 = 5.897	–	0.2138	0.2229	0.239
573.81 K, m1 = 12.7	–	0.4053	0.422	0.449
573.86 K, m1 = 2.621	–	0.1352	0.1409	0.1502
574.03 K, m1 = 0.4814	–	0.0947	0.0986	0.1051
574.1 K, m1 = 0.0473	–	0.0871	0.0907	0.0966
574.21 K, m1 = 1.242	–	0.1064	0.111	0.111
574.23 K, m1 = 16.39	–	0.555	0.576	0.615
